Data: US20200205401A1, “LACTONES AS SOLVENTS IN AGROCHEMICAL FORMULATIONS” (priority 2017, published 2020)
Where “and” joins values, the source holds several entries; their conditions need not be identical. Identical values can stand only once. Counter-ions that a name gives are not always drawn. Like-named read-outs stand apart in the source and are kept apart here.

Columns and labels:
[1] = Azoxystrobin dissolved in organic liquid, diluted with 20 volumes of water, visual assessment of layers or crystals; type: physicochemical; details: water 20 times the solvent volume, assessed visually at 48 hours
Protocol: Azoxystrobin was dissolved in a range of organic liquids, some of which are known to be solvents for agrochemicals, at room temperature and allowed to equilibrate. A measured quantity of water was added and each mixture was shaken. The volume of water was 20 times greater than the volume of organic liquid/solvent. After settling the samples were assessed as being either (i) split into two layers with no evidence of pesticide crystalisation, or (ii) identified as a single layer where the pesticide had precipitated out as crystals.
Samples were assessed after 24 and 48 hours. The log P octanol values for the solvents have been taken from the literature or, where this value was not available, were estimated using the program ProPred™ (ICAS ProPred™, KT Consortium, DTU Kemiteknik, Lyngby, Denmark). Where values were estimated, a simple check was carried out using measuring cylinders with 50/50 volumes of octanol and water. Solvent was added to the cylinder until a clear observation of the effect of the addition was apparent.

[2] = solvents of Table 2/3; literature, or estimated with ProPred where not available; cited from earlier work
[3] = Azoxystrobin dissolved in organic liquid, diluted with 20 volumes of water, visual assessment of layers or crystals; type: physicochemical
[4] = Aqueous solubility of gamma caprolactone by HPLC; type: physicochemical; details: calculated mean of a set of six measurements
Protocol: The aqueous solubility of gamma caprolactone was measured using HPLC chromatography. Several samples of the lactone were equilibrated at room temperature with an equal volume of water. The samples were left for two weeks then analysed by HPLC.

[5] = log P octanol by octanol saturated chromatography column; type: physicochemical; details: octanol/water (octanol saturated chromatography column); 25° C., pH 6.98; read-out: octanol water partition coefficient (log P octanol)
Excerpt: Samples of gamma caprolactone were examined using an octanol saturated chromatography column.

[6] = 5% w/w solutions of agrochemicals in solvent diluted into water 20:1, appearance; type: physicochemical; details: for APPEARANCE OF FORMULATION, Difenoconazole: 5% w/w difenoconazole in solvent; for APPEARANCE OF FORMULATION, Difenoconazole / APPEARANCE OF FORMULATION, Fludioxonil / APPEARANCE OF FORMULATION, Mandipropamid / APPEARANCE OF FORMULATION, Pinoxaden: diluted into water 20:1; for APPEARANCE OF FORMULATION, Fludioxonil: 5% w/w fludioxonil in solvent; for APPEARANCE OF FORMULATION, Mandipropamid: 5% w/w mandipropamid in solvent; for APPEARANCE OF FORMULATION, Pinoxaden: 5% w/w pinoxaden in solvent; for appearance with each of the agrochemical active ingredients: mandipropamid, fludioxonil, pinoxaden, difenoconazole, 5% w/w, diluted 20:1
Protocol: In this example several pesticidally active agrochemical ingredients (mandipropamid, fludioxonil, pinoxaden, and difenoconazole) were dissolved in each of the three solvents to give solutions of 5% w/w. Each solution was then diluted into water to form a 20:1 mixture.

[7] = 20° C.; cited from earlier work

Compound	APPEARANCE (azoxystrobin solution in solvent after addition of water) [1]	logP octanol [2]	other results
CC(=O)c1ccccc1 [Acetophenone]	2 layer		
OCc1ccccc1 [Benzyl alcohol]	2 layer		
CCCCOC(=O)c1ccccc1 [Butyl benzoate]	2 layer		
OC1CCCCC1 [Cyclohexanol]	2 layer		
CCOC(=O)/C=C/C(=O)OCC [Diethyl fumarate]	2 layer		
CCCCCCOCCOCCO [Diethylene glycol hexyl ether]	2 layer	2.16	
CC(O)C(=O)N(C)C (stereo not drawn) [Dimethyl lactamide]	Crystallised	−0.22	
COC(C)COC(C)CO (stereo not drawn) [Dipropylene glycol monomethyl ether]	Crystallised		
OCCO [Ethylene glycol]			APPEARANCE (azoxystrobin solution in solvent after addition of water) [3]: Crystallised
COC(=O)c1ccccc1 [Methyl benzoate]	2 layer	1.85	
COC(=O)C(C)O (stereo not drawn) [Methyl lactate]	Crystallised		
CCCOC(=O)c1ccccc1 [Propyl benzoate]	2 layer		
CCCOC(=O)C(C)O (stereo not drawn) [Propyl lactate]	2 layer		
CC(=O)OCC(C)OC(C)=O (stereo not drawn) [Propylene glycol diacetate]	Crystallised	0.94	
CCCCOCC(C)O (stereo not drawn) [Propylene glycol n-butyl ether]	2 layer		
CC(=O)OCC(COC(C)=O)OC(C)=O [Triacetin]	2 layer		
CCOP(=O)(OCC)OCC [Triethyl phosphate]	Crystallised	0.28	
O=C1CCCO1 [γ-Butyrolactone]	Crystallised	−0.60	
CCC1CCC(=O)O1 (stereo not drawn) [γ-Caprolactone, 5-ethyltetrahydrofuran-2-one]			Aqueous solubility, Mean [4]: 10.93 % w/w and 11.01 % w/w; chromatographic logP [5]: 0.34; APPEARANCE OF FORMULATION, Difenoconazole [6]: 2 layers; APPEARANCE OF FORMULATION, Fludioxonil [6]: 2 layers; APPEARANCE OF FORMULATION, Mandipropamid [6]: 2 layer; APPEARANCE OF FORMULATION, Pinoxaden [6]: 2 layers; appearance with each of the agrochemical active ingredients [6]: two-layer system; appearance after further 100-fold dilution in water [3]: two layers still did not become miscible
CC1CCC(=O)O1 (stereo not drawn) [γ-Valerolactone]	Crystallised	0.21	
O=C1CCCCO1 [δ-Valerolactone]	Crystallised	−0.26	
O=C1CCCCCO1 [ε-Caprolactone]	Crystallised	0.70	
Butylene carbonate	2 layer	1.21	
Diethylene carbonate			APPEARANCE (azoxystrobin solution in solvent after addition of water) [3]: 2 layer
Hexylene glycol	Crystallised		APPEARANCE OF FORMULATION, Difenoconazole [6]: Crystallised; APPEARANCE OF FORMULATION, Fludioxonil [6]: Crystallised; APPEARANCE OF FORMULATION, Mandipropamid [6]: Crystallised; APPEARANCE OF FORMULATION, Pinoxaden [6]: Crystallised; appearance with each of the agrochemical active ingredients [6]: crystallisation; miscibility with water [7]: fully miscible
